{
  "source": "patent US10864251B2",
  "about": "“Peptides of syndecan-1 for inhibiting angiogenesis” (Wisconsin Alumni Research Foundation, priority 2006, dated 2020)",
  "assay_type_in_all_cases": "cell-based",
  "key": {"[1]": {"system": "human dermal microvascular endothelial cells (HMEC-1)", "details": "HMEC-1, truncated peptides compared to SSTN82-130, FIG. 14", "protocol": "FIGS. 6A-6H—Inhibition of B82L fibroblast and HMEC-1 cell attachment and spreading on VN by synstatin82-130. B82L fibroblasts, which rely on the αvβ5 integrin for attachment to VN, and human dermal microvascular endothelial cells, which rely on both the αvβ3 and αvβ5 integrins for attachment to VN, were plated in the absence of peptide (FIGS. 6A, 6E) or in the presence of 0.1 (FIGS. 6B, 6F), 0.3 (FIGS. 6C, 6G) or 1 μM (FIGS. 6D, 6H) synstatin82-130 for 2 hr and processed as described in FIG. 2.\nFIGS. 10A-10D—Dependence of HMEC cell attachment and spreading on integrin activation by Sdc1 and its inhibition by SSTN. (FIG. 10A) HMECs were plated for 2 hr either on Sdc1-specific antibody B-B4 to engage Sdc1 or on VN (10 μg/ml coating concentration) to engage the αvβ3 and αvβ5 integrins. Blocking antibodies LM609 (10 μg/ml, specific for αvβ3) and P1F6 (10 μg/ml, specific for αvβ5), SSTN (0.5 μM) or recombinant mouse Sdc1 ectodomain (mS1ED, 5 μM) were added. The ligand mimetic antibody WOW1 was used to detect activated αvβ3 integrin on cells plated on B-B4. (FIG. 10B) HMECs were treated with siRNA oligo specific for human Sdc1 for 48 hr prior to plating on VN. Sdc1 expression was quantified by flow cytometry using human Sdc1-specific mAb B-B4 or a control mouse IgG. (FIG. 10C-10D) The percentage of cell attaching or attaching and spreading was quantified for HMECs, HAEC and MAECs plated on VN for 24 hr in the presence of mS1ED or SSTN, or after siRNA silencing of Sdc1 expression in the presence of mAb LM609 to block αvβ3 integrin, P1F6 to block αvβ5 integrin, or both antibodies.\nFIG. 14—Activity of SSTN peptides. A diagram of SSTN82-130 used in our experiments is shown. The gray letters designate amino acids that are identical or highly conserved across species (mouse, human, rat, hamster). Shorter peptides have been tested using HMEC-1 endothelial cells for inhibition of […] mediated cell attachment and spreading in comparison to SSTN82-130.\n(§1) Cell adhesion and spreading assays were performed with modification to the previous procedures (Lebakken and Rapraeger, 1996. Briefly, human plasma vitronectin or fibronectin at 10-30 μg/ml were applied to nitrocellulose-coated ten well slides (Erie Scientific) and incubated for 1-2 h at 37° C. Slides were blocked with 1.0% heat-denatured bovine serum albumin for a minimum of 30 min at 37° C. Cells were detached from the substratum using 5 mM EDTA in Tris-buffered saline and resuspended in HEPES-buffered culture medium containing 0.1% heat-denatured BSA. Cells were plated at a density of 15,000 cells per well and allowed to attach and spread for 2 h prior to fixation in 4% paraformaldehyde in CMF-PBS. For fluorescence microscopy, fixed cells were permeabilized in 0.2% Triton X-100, labeled with rhodamine-conjugated phalloidin and analyzed using fluorescence microscopy. For testing inhibition by recombinant mScd-1ED and synstatin82-130, cells were pre-incubated 10 min before plating in the presence of the inhibitor. […] LM609 was used as a specific block to αvβ3 and P1F6 was used as a specific blocker of αvβ5.\nFinally, the inventors have examined HMEC-1 cells, which are immortalized human dermal microvascular endothelial cells. Microvascular endothelial cells are regarded as being the main source of endothelial cells that carry out angiogenesis in vivo. The HMEC-1 cells grown in serum-containing culture medium express Sdc1 (as noted earlier) and also express active αvβ3 and αvβ5 integrins. […]"}, "[2]": {"system": "MDA-MB-231 human mammary carcinoma cells", "details": "MDA-MB-231, 0.1-1.0 μM SSTN peptide, 2 hr", "protocol": "(§2) FIGS. 5A-5F—Inhibition of MDA-MB-231 human mammary carcinoma cell attachment and spreading on VN by synstatin82-130. MDA-MB-231 human mammary carcinoma cells, which rely on the αvβ3 integrin for attachment and spreading on VN, were plated on 10 μg/ml VN for 2 hr in the absence of peptide (FIG. 5A) or in the presence of 0.1 (FIG. 5B), 0.3 (FIG. 5C) or 1 μM (FIG. 5D) synstatin82-130. The cells were fixed and stained as in FIG. 2.\n(§3) FIG. 17—Human SSTN peptides inhibit αvβ3-mediated cell attachment and spreading on vitronectin. MDA-MB-231 human mammary carcinoma cells were allowed to attach and spread on either vitronectin (VN) or fibronectin (FN) during a 2 hr assay in the presence of 0, 0.1, 0.3, 0.5, 1.0 or 30 μM SSTN peptide. […] The two peptides tested are derived either from amino acids 88-121 (hSSTN 88-121) or 89-120 (hSSTN 89-120) of the human Sdc1 sequence. Adhesion to VN, but not FN, is mediated by the αvβ3 integrin on these cells and is disrupted by the human SSTN peptides.\nas §1\nThe inventors have tested the adhesion and spreading of MDA-MB-231 mammary carcinoma cells on VN in the presence or absence of synstatin82-130. These cells rely specifically on the active αvβ3 integrin for this adhesion (Beauvais et al., 2004). Recombinant Sdc1 ectodomain (SLED) has been shown by the inventors previously to block spreading of these cells with an IC50 of about 3-10 μM (Beauvais et al., 2004). […] Thus, synstatin82-130 is a specific and effective inhibitor of αvβ3 integrin activation."}, "[3]": {"system": "MDA-MB-231 human mammary carcinoma cells", "test": "Cell attachment and spreading on fibronectin (control ligand), MDA-MB-231 cells", "details": "MDA-MB-231, 30 μM, 100-fold greater than IC50", "protocol": "as §2\nas §3, with “peptides. […]” for “peptides.”"}},
  "data": [
    {"substance": "SSTN88-121: truncated mouse SSTN peptide, amino acids 88-121 (FTSVLPAGEKPEEGEPVLHVEAEPGFTARDKEKE; UniProt P18828 88-121, looked up, fragment)", "values": [
      {"measurement": "activity in cell attachment and spreading assays on VN", "setting": "[1]", "value": "active"}
    ]},
    {"substance": "hSSTN 89-120: human SSTN, amino acids 89-120 of the human Sdc1 sequence, SEQ ID NO:21 (STSTLPAGEGPKEGEAVVLPEVEPGLTAREQE)", "values": [
      {"measurement": "attachment and spreading on VN", "setting": "[2]", "value": "disrupted"},
      {"measurement": "attachment and spreading on fibronectin (FN)", "setting": "[3]", "value": "lack of activity"}
    ]},
    {"substance": "hSSTN 88-121: human SSTN, amino acids 88-121 of the human Sdc1 sequence, SEQ ID NO:28 (ASTSTLPAGEGPKEGEAVVLPEVEPGLTAREQEA)", "values": [
      {"measurement": "attachment and spreading on VN", "setting": "[2]", "value": "disrupted"},
      {"measurement": "attachment and spreading on fibronectin (FN)", "setting": "[3]", "value": "lack of activity"}
    ]}
  ]
}
